Some test systems named below: ACHN renal; K-562 leukemia; KM12 colon; LOX IMVI melanoma; M14 melanoma; NCI-H226 lung; OVCAR-5 ovarian; SK-OV-3 ovarian; SW-620 colon; UACC-62 melanoma.
Test in all cases: inhibition of tumour cell growth, NCI panel, 48 h

The structures appear in SMILES notation. “And” between values parts separate entries of the source, which are not always exact repeats. Equal values may be shown once.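 Grown in 96-well plates, cells were treated for 48 hours with each compound at five concentrations. Insufficient inhibition: endpoint recorded as highest concentration tested. Here, GI50 denotes the concentration required for 50% inhibition of growth. TGI: total growth inhibition.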 Bounds are passed on as bounds.

Take `O=c1cc(/C=C/c2ccc(O)c(O)c2)oc(/C=C/c2ccc(O)c(O)c2)c1`: the TGI in the assay with ACHN renal is 16.1 µM; in the assay with K-562 leukemia, above 20.7 µM; in the assay on KM12 colon, 16 µM; with LOX IMVI melanoma it was above 25.2 µM; with M14 melanoma it was 16.5 µM; in the assay on NCI-H226 lung, 28.1 µM. For the same molecule, the TGI was 44.8 µM with OVCAR-5 ovarian, 21.8 µM in the assay on SK-OV-3 ovarian, above 26.8 µM in the assay with SW-620 colon and 6.43 µM in the assay with UACC-62 melanoma.

In the case of `COc1cc2c(cc1OCCCCOc1cc(-c3ccc(F)cc3)nc(C)n1)N=C[C@@H]1CCCN1C2=O`, the TGI stood at 0.823 µM in the assay with ACHN renal; 9.5 µM in the assay on K-562 leukemia; 3.67 µM in the assay with KM12 colon; 0.663 µM with LOX IMVI melanoma; 1.87 µM with M14 melanoma; 4.71 µM in the assay with NCI-H226 lung. The TGI in the assay on OVCAR-5 ovarian was determined as 10.9 µM; in the assay with SK-OV-3 ovarian it was 16.2 µM; in the assay on SW-620 colon, 4.85 µM; in the assay with UACC-62 melanoma, 1.28 µM.

Consider `O=C1C(c2c(O)[nH]c3ccc(S(=O)(=O)O)cc23)=Nc2ccccc21`, for which the TGI with ACHN renal, in the assay with K-562 leukemia, with KM12 colon, in the assay with LOX IMVI melanoma, with M14 melanoma and in the assay with NCI-H226 lung was above 100 µM each time. Also, the TGI in the assay on OVCAR-5 ovarian, in the assay on SK-OV-3 ovarian, with SW-620 colon and in the assay on UACC-62 melanoma was above 100 µM throughout.

With `COc1ccc2c(c1)O/C(=C\c1cccc(OCC(=O)Nc3nc4c(s3)CCCC4)c1)C2=O`, the GI50 is 4.43 µM with ACHN renal; 4.08 µM with K-562 leukemia; 10.4 µM in the assay on KM12 colon; 1.16 µM with LOX IMVI melanoma; above 100 µM with M14 melanoma; above 100 µM in the assay on NCI-H226 lung. For the same molecule, the GI50 in the assay with OVCAR-5 ovarian was above 40.6 µM; with SK-OV-3 ovarian, above 72.6 µM; with SW-620 colon, above 100 µM; in the assay with UACC-62 melanoma, above 46.2 µM. Moreover, the TGI with ACHN renal is 33.6 µM; in the assay with K-562 leukemia it was above 78.3 µM; in the assay on KM12 colon it was above 100 µM; in the assay with LOX IMVI melanoma, 3.32 µM; with M14 melanoma, above 100 µM; in the assay with NCI-H226 lung, above 100 µM. For the same molecule, the TGI in the assay with OVCAR-5 ovarian was above 78.8 µM; with SK-OV-3 ovarian, above 100 µM; with SW-620 colon, above 100 µM; in the assay with UACC-62 melanoma it was above 100 µM.

As for `CC(C)=CCc1c2c(c3occ(-c4ccc(O)c(O)c4)c(=O)c3c1O)C=CC(C)(C)O2`, the TGI in the assay with ACHN renal is 6.29 µM; in the assay on K-562 leukemia, 5.12 µM; in the assay with KM12 colon it was 3.41 µM; in the assay with LOX IMVI melanoma it was 5.22 µM; with M14 melanoma, 3.5 µM; in the assay with NCI-H226 lung, 34.6 µM. Further, the TGI with OVCAR-5 ovarian is 21.1 µM; in the assay with SK-OV-3 ovarian it was 20.5 µM; with SW-620 colon it was 2.36 µM; in the assay on UACC-62 melanoma, 14.2 µM.

Consider `CSC1CC2C(CC1(C)O)C2(C)C` (configuration not stated), for which the TGI in the assay with ACHN renal, in the assay with K-562 leukemia, in the assay with KM12 colon, in the assay on LOX IMVI melanoma, in the assay on M14 melanoma and in the assay with NCI-H226 lung was above 100 µM throughout. Moreover, the TGI in the assay with OVCAR-5 ovarian, in the assay with SK-OV-3 ovarian, in the assay on SW-620 colon and in the assay with UACC-62 melanoma was above 100 µM in each case. For the same molecule, the GI50 with K-562 leukemia is 49.7 µM and > 100 µM; in the assay on NCI-H226 lung, 38.5 µM and > 100 µM.

As to `CN(C)NC(=S)Nc1ccccc1Br`, the TGI with ACHN renal, with K-562 leukemia, with KM12 colon, in the assay on LOX IMVI melanoma, in the assay with M14 melanoma and with NCI-H226 lung was above 100 µM in each case. The TGI in the assay on OVCAR-5 ovarian, with SK-OV-3 ovarian, in the assay with SW-620 colon and with UACC-62 melanoma was above 100 µM each time.

With `CC(C)(C)N=c1n(C(C)(C)C)oc(=O)n1C(C)(C)C`, the TGI in the assay with ACHN renal, with K-562 leukemia, in the assay with KM12 colon, in the assay with LOX IMVI melanoma, in the assay on M14 melanoma and in the assay on NCI-H226 lung was above 100 µM each time. Further, the TGI in the assay with OVCAR-5 ovarian, in the assay with SK-OV-3 ovarian, in the assay on SW-620 colon and with UACC-62 melanoma was above 100 µM throughout.

For `COP(=O)(O)/C=C/C(NC(=O)C(Cl)(Cl)Cl)c1ccccc1` (configuration not stated), the TGI with ACHN renal, in the assay with K-562 leukemia, with KM12 colon, in the assay with LOX IMVI melanoma, in the assay on M14 melanoma and in the assay with NCI-H226 lung was above 100 µM in each case. Further, the TGI in the assay with OVCAR-5 ovarian, in the assay with SK-OV-3 ovarian, in the assay with SW-620 colon and in the assay on UACC-62 melanoma was above 100 µM in each case.

As for `Cc1ccc(S(=O)(=O)Oc2cc(N)c3c(n2)CCC3)cc1`, the TGI in the assay on ACHN renal, in the assay on K-562 leukemia, with KM12 colon, in the assay on LOX IMVI melanoma, in the assay with M14 melanoma and in the assay with NCI-H226 lung was above 100 µM throughout. For the same molecule, the TGI in the assay on OVCAR-5 ovarian, with SK-OV-3 ovarian, with SW-620 colon and with UACC-62 melanoma was above 100 µM in each case.

As for `O=C(O)[C@@H]1C[C@@H](O)CN1C(=O)OCc1ccccc1`, the TGI in the assay on ACHN renal, with K-562 leukemia, in the assay with KM12 colon, in the assay on LOX IMVI melanoma, in the assay with M14 melanoma and with NCI-H226 lung was above 100 µM each time. Also, the TGI in the assay with OVCAR-5 ovarian, in the assay on SK-OV-3 ovarian, in the assay with SW-620 colon and with UACC-62 melanoma was above 100 µM each time.

For `C=C1[C@@H](O)C[C@@]23CC[C@@H]4[C@@]5(C)CC[C@@H](OC(C)=O)C(C)(C)[C@@H]5C[C@@H](OC5OC(COC(C)=O)C(O)C(O)C5O)[C@@]4(C)C2=CC[C@H]3[C@H]1C` (some centres not stated), the TGI in the assay with ACHN renal is 21.9 µM; in the assay with K-562 leukemia it was 10.6 µM; in the assay with KM12 colon, 8.16 µM; in the assay with LOX IMVI melanoma, 10.9 µM; in the assay on M14 melanoma, 16.4 µM; in the assay with NCI-H226 lung, 17.4 µM. The TGI in the assay on OVCAR-5 ovarian was determined as 7.08 µM; with SK-OV-3 ovarian it was 26.1 µM; with SW-620 colon it was 21.7 µM; with UACC-62 melanoma it was 20.5 µM.

For the molecule `Nc1c2ccccc2nc2c1ccc1ncccc12`, the TGI with ACHN renal stood at 41 µM; in the assay with K-562 leukemia, 88.6 µM; in the assay on KM12 colon, 52.6 µM; in the assay on LOX IMVI melanoma, 53.5 µM; with M14 melanoma it was 43 µM; in the assay with NCI-H226 lung, 43.9 µM. For the same molecule, the TGI was above 100 µM in the assay on OVCAR-5 ovarian, above 100 µM with SK-OV-3 ovarian, above 100 µM with SW-620 colon and 37.8 µM in the assay on UACC-62 melanoma.

In the case of `CCC(C(=O)O)c1ccc(OCc2ccccc2)cc1` (configuration not stated), the TGI in the assay with ACHN renal, in the assay on K-562 leukemia, in the assay on KM12 colon, in the assay with LOX IMVI melanoma, in the assay on M14 melanoma and in the assay with NCI-H226 lung was above 100 µM in each case. The TGI in the assay on OVCAR-5 ovarian, with SK-OV-3 ovarian, in the assay with SW-620 colon and in the assay with UACC-62 melanoma was above 100 µM each time.

Consider `CC(C)(C)NC(=O)[C@H]1CC[C@H]2[C@@H]3CC=C4NC(=O)CC[C@]4(C)[C@H]3CC[C@]12C`, for which the TGI with ACHN renal, in the assay with K-562 leukemia, in the assay with KM12 colon, in the assay on LOX IMVI melanoma, with M14 melanoma and in the assay with NCI-H226 lung was above 100 µM in each case. The TGI in the assay with OVCAR-5 ovarian, in the assay on SK-OV-3 ovarian, in the assay with SW-620 colon and in the assay with UACC-62 melanoma was above 100 µM in each case.

On to `CCN(CC)CCNc1ccc2nnn3c4ccc(OC)cc4c(=O)c1c23`, for which the TGI with ACHN renal worked out at 21.7 µM; in the assay with K-562 leukemia, 20.1 µM; in the assay with KM12 colon it was 13.9 µM; in the assay with LOX IMVI melanoma, 11.1 µM; in the assay with M14 melanoma, 23.5 µM; with NCI-H226 lung it was 20 µM. Also, the TGI was 23.7 µM in the assay on OVCAR-5 ovarian, 34.6 µM in the assay with SK-OV-3 ovarian, 17.1 µM with SW-620 colon and 25.7 µM in the assay on UACC-62 melanoma.

Consider `O=c1c2ncn(C3CC(O)C(CO)O3)c2nnn1Cc1ccccc1[N+](=O)[O-]` (configuration not stated), for which the TGI with ACHN renal, in the assay with K-562 leukemia, with KM12 colon, in the assay on LOX IMVI melanoma, in the assay on M14 melanoma and in the assay with NCI-H226 lung was above 100 µM throughout. Besides, the TGI in the assay with OVCAR-5 ovarian, with SK-OV-3 ovarian, in the assay with SW-620 colon and in the assay on UACC-62 melanoma was above 100 µM each time.

In the case of `Cc1ccc(S(=O)(=O)N2CCSCCSCCSCCSCC2)cc1`, the TGI in the assay on ACHN renal was above 100 µM; with K-562 leukemia, above 100 µM; in the assay with KM12 colon, above 100 µM; in the assay with LOX IMVI melanoma, above 100 µM; with M14 melanoma, above 100 µM; with NCI-H226 lung it was above 82.2 µM. The TGI is above 100 µM with OVCAR-5 ovarian, 46 µM with SK-OV-3 ovarian, above 100 µM with SW-620 colon and 38.1 µM in the assay with UACC-62 melanoma.

Regarding `NC(CSCc1ccccc1)C(=O)O` (configuration not stated), the TGI in the assay with ACHN renal, in the assay with K-562 leukemia, in the assay on KM12 colon, with LOX IMVI melanoma, with M14 melanoma and in the assay on NCI-H226 lung was above 100 µM throughout. For the same molecule, the TGI in the assay with OVCAR-5 ovarian, in the assay on SK-OV-3 ovarian, with SW-620 colon and with UACC-62 melanoma was above 100 µM each time.
